Laboratory results published in article PMC10525927, “First Generation of Antioxidant Precursors for Bioisosteric Se-NSAIDs: Design, Synthesis, and In Vitro and In Vivo Anticancer Evaluation” (Antioxidants, 2023).
Like-named read-outs stand apart in the source and are kept apart here.

How the values were obtained:
[1] = system: panel of eight cancer cell lines; test: MTT cell viability assay, statements on the whole panel; format: cell-based; conditions: 48 h
Method: (§1) The cell lines were purchased from the American Type Culture Collection (ATCC). The cancer cell lines DU-145, PC-3, T-47D, MDA-MB-231, H1299, and A549, and the non-tumorigenic cells (184B5 and BEAS-2B), were maintained in RPMI 1640 medium (Gibco, Alcobendas, Madrid, Spain) supplemented with 10% fetal bovine serum (FBS; Gibco) and 1% antibiotics (10.00 units/mL penicillin and 10.00 mg/mL streptomycin; Gibco). Colon cancer cells HT-29 and HCT-116 were cultured in McCoy’s 5A medium (Gibco) supplemented with 10% fetal bovine serum (FBS; Gibco) and 1% antibiotics (10.00 units/mL penicillin and 10.00 mg/mL streptomycin; Gibco). Cells were maintained in tissue culture flasks at 37 °C and 5% CO2. The culture medium was replaced every three days.
(§2) The antiproliferative activity and selectivity in vitro of the Se-NSAID derivatives were determined by the (3-(4,5-dimethylthiazol-2-yl)-2,5-diphenyltetrazolium bromide) (MTT) assay. Compounds were dissolved in DMSO at a concentration of 0.01 M and serial dilutions were prepared. The Se-NSAID derivatives were tested at seven concentrations ranging between 1 and 100 µM in the colon (HT-29 and HCT-116), prostate (DU-145 and PC-3), breast (MDA-MB-231 and T-47D), and lung (H1299 and A549) cancer cell lines. The non-tumorigenic breast (184B5) and lung (BEAS-2B) cell lines were also tested to assess the selectivity of the compounds following the same procedure. A total of 1 × 10^4 cells were seeded per well in 96-well plates and incubated at 5% CO2 and 37 °C for 24 h. Then, cells were treated with either DMSO or increasing concentrations of the corresponding Se-NSAID derivatives for 48 h. A volume of 20 µL of MTT (5 mg/mL) was added to each well 2.5 h before the termination point. At the end of the experiment, the medium was removed, and the resultant formazan crystals formed by mitochondrial reduction of MTT were dissolved in 50 µL of DMSO. Absorbance was measured at 550 nm. IC50, GI50, TGI, and LC50 values were calculated using OriginPro version 8.5.1. software by nonlinear curve fitting. Selectivity indexes (SI) were calculated as the ratio of the IC50 values determined for the nonmalignant and the tumoral cells in the breast (IC50 (184B5)/IC50 (MDA-MB-231) and IC50 (184B5)/IC50 (T-47D)) and lung (IC50 (BEAS-2B)/IC50 (H1299) and IC50 (BEAS-2B)/IC50 (A549)) cell lines. Data were obtained from at least three independent experiments performed in triplicates.

[2] = system: DU-145 prostate cancer cells; test: MTT cell viability assay, DU-145; format: cell-based; conditions: mean ± SD
Method: as §1, §2

[3] = In vivo toxicity study; set-up: species or system mice; conditions: 7.5 mg/Kg IP thrice weekly, 27 days
Method: Female mice of 4–5 weeks of age (The Jackson Laboratory, Bar Harbor, ME, USA) were kept on the daily cycle of 12 h light/dark and received food and water ad libitum throughout the studies. All animal procedures were performed following the National Institutes of Health (NIH) Guide for the Care and Use of Laboratory Animals and protocols were approved by the Animal Care and Use Committee of the Penn State College of Medicine.
Mice were treated either with intraperitoneal doses of 7.5 mg/Kg of compound 5 or with DMSO (vehicle) thrice weekly and kept under observation for 27 days. Body weight, behavior, and food and water intake were monitored every alternate day. At the end of the study, animals were sacrificed by euthanizing the animals by CO2 asphyxiation. The blood serum was withdrawn and subjected to the biochemical analysis of creatinine (mg/dL), AST(SGOT) (U/L), ALT(SGPT) (U/L), Alk. Phos (U/L), and BUN (mg/dL).

[4] = system: H1299 lung cancer cells; test: MTT cell viability assay, H1299; format: cell-based; conditions: mean ± SD
Method: as §1, §2

[5] = system: MDA-MB-231 breast cancer cells; test: MTT cell viability assay, MDA-MB-231; format: cell-based; conditions: mean ± SD
Method: as §1, §2

[6] = system: HCT-116 cells; test: Annexin V & Dead Cell apoptosis assay; format: cell-based; conditions: HCT-116, 24 h
Method: The capacity of the Se-NSAID derivatives to induce apoptosis was analyzed using both a Caspase 3/7 assay kit and Annexin V & Dead Cell assay kit (EMD Millipore, Darmstadt, Germany). HCT-116 cells were seeded in 6-well plates at a density of 5 × 10^5 cells per well. Cells were treated either with DMSO (control) or with different concentrations of compound 5 and incubated for 24 h. At the end of the treatment, cells were collected and treated with the respective dyes according to the manufacturer’s protocol. For the Caspase 3/7 assay, cells were stained with 5 µL of Muse™ Caspase 3/7 working solution and incubated at 37 °C for 30 min. After incubation, […] of Muse™ Caspase 7-AAD working solution was added and the samples were incubated for another 5 min in the dark at room temperature prior to analysis. For Annexin V assay, cells were stained with 100 µL pf Muse™ Annexin V & Dead Cell Reagent and incubated for 20 min at room temperature in the dark. Samples for both assays were analyzed on a Muse™ Cell Analyzer (Merck Millipore, Darmstadt, Germany) using Muse™ version 1.4. software.

[7] = system: BEAS-2B non-tumorigenic lung (bronchial epithelium) cells; test: MTT cell viability assay, BEAS-2B; format: cell-based; conditions: 48 h, mean ± SD; for IC50: nonmalignant lung cells
Method: as §1, §2

[8] = in vitro TGI concentration, 48 h, Table S1

CC(C)Cc1ccc(C(C)C(=O)[Se][Se]C(=O)C(C)c2ccc(CC(C)C)cc2)cc1 (centres unmarked) [Compound 5, 2-(4-Isobutylphenyl)propanoic diselenoperoxyanhydride]
GI50 ([1]; eight cancer cell lines, read-out: GI50 across all the cancer cell lines tested): < 10 µM
IC50 ([1]; eight colon, prostate, breast and lung cancer cell lines, read-out: IC50 in all the cancer cell lines tested): < 10 µM
GI50 ([1]; read-out: GI50 in at least six out of the eight cell lines): < 5 µM
LD50 DU-145 ([2]; 48 h, Table S1): 9.0 ± 0.4 µM
IC50 ([2]; Homo sapiens, DU-145, 48 h): 7 ± 1.3 µM
GI50 ([2]; Homo sapiens, DU-145, 48 h, Table S1): 6 ± 1.3 µM
TGI DU-145 [2, 8]: 7.3 ± 0.9 µM
blood serum biochemistry (creatinine, AST, ALT, Alk. Phos, BUN) vs vehicle ([3]; female nude mice, endpoint): no significant changes
behavior and food/water uptake ([3]; mice): no changes
body weight during treatment ([3]; mice): no appreciable variations
LD50 H1299 ([4]; 48 h, Table S1): 16.5 ± 5.1 µM
IC50 ([4]; Homo sapiens, NCI-H1299, 48 h): 9.3 ± 0.6 µM
GI50 ([4]; Homo sapiens, NCI-H1299, 48 h, Table S1): 8.1 ± 1 µM
TGI H1299 [4, 8]: 10.2 ± 1.0 µM
IC50 ([5]; Homo sapiens, MDA-MB-231, 48 h): 8.3 ± 2.5 µM
GI50 ([5]; Homo sapiens, MDA-MB-231, 48 h, Table S1): 4.8 ± 1.1 µM
TGI MDA-MB-231 [5, 8]: 7.9 ± 3.8 µM
Early Apop. cells ([6]; 15 μM): ~ 23%
Late Apop./Dead cells ([6]; 15 μM): ~ 13%
Live cells ([6]; 15 μM): ~ 63%
Dead cells ([6]; 25 μM): ~ 10%
Late Apop./Dead cells ([6]; 25 μM): ~ 20%
Live cells ([6]; 25 μM): ~ 60%
cells detected to be apoptotic ([6]; 25 μM): more than 30%
LD50 BEAS-2B ([7]; Table S1): 14.8 ± 4.7 µM
IC50 [7]: 15.9 ± 2.4 µM
GI50 ([7]; Homo sapiens, BEAS-2B, Table S1): 7.8 ± 2.3 µM
IC50 ([7]; Homo sapiens, BEAS-2B): 14 to 19 µM
TGI BEAS-2B ([7]; in vitro TGI concentration, Table S1): 9.8 ± 1.6 µM
